Data set [1] deals with HIV-1 IIIB strain. Nature of the data set: MT-4 HIV Wild Type Virus Infection Assay (IIIB Virus). The class given is cell-based. The settings on record: MT-4 cells acutely infected with HIV-1 IIIB, 5 day incubation, Cell-titer glo. The procedure: Test compounds and controls were serially diluted and spotted in replicate into 384 well black assay plates via acoustic transfer (Echo). MT-4 cells were grown in batch, centrifuged and resuspended into fresh CCM media (RPMI w/10% FBS, 1% PS) at 2×10^6 cells/ml. MT-4 cells were acutely infected with HIV-1 IIIB strain. The size of each infection mix was scaled by the number of sample plates to be tested. Each infection mix was transferred into 5 mL closed tubes and nutated rapidly on a shaker at 37° C. incubator for 1 hour. The infection mixes were then diluted 25× in fresh cell culture media and then added to assay plates at 40 μL per well using a ViaFlo 384 pipettor. After 5 day incubation at 37° C. in a CO2 incubator, assay plates were processed with Cell-titer glo reagent using a ViaFlo 384 with an addition/mixing program. Plates were read immediately on Envision reader. Assay signals were plotted and dose response curves generated to determine individual compound EC50s.

Data set [2] can be described thus: physchem. The settings on record: 23 °C, pH 6.5, fassif, thermodynamic from solid. Here is the method:
Buffer Preparation: Fasted State Simulated Intestinal Fluid (FaSSIF): Simulated Intestinal Fluid (SIF) powder containing a complex of Taurocholate and Lecithin (4:1 molar ratio) was obtained from Biorelevant. 0.056 g of SIF powder was added to 25 mL of buffer, adjusted to pH 6.5, containing 0.011 g of NaOH (pellets), 0.099 g of NaH2PO4 (monohydrate), and 0.155 g of NaCl. The buffer was prepared with HPLC H2O. The SIE powder was stirred until completely dissolved and allowed to stand for 2 hours.
Test Compounds: Each test compound was placed in a vial containing approximately 7 mg of material. Aliquots were weighed out for each assay media at each time point to be analyzed. The buffer was added to each vial such that the final dose concentration of 5 mg/mL was achieved. Samples were then vortexed for 5-10 seconds.
The plate was sealed with a pierceable heat seal and analyzed by HPLC-UV.

A short description of data set [3]: PBS Stability Assay. Format: physicochemical. The settings on record: phosphate buffered saline pH 7.4; for half-life at 2 μM: buffer, pH 7.4, 2 μM, read-out: PBS T½; for PBS T½: 2 μM. Here is the method: Reagents. Stock solutions of test compounds in dimethyl sulfoxide (DMSO) having a final concentration of 10 mM were prepared and used in all experiments. Sekisui XenoTech (Kansas City, KS) provided pooled intestinal S9 fractions. All other chemicals were purchased from Sigma-Aldrich (St. Louis, MO) or VWR (West Chester, PA). Internal Standard/Quench (IS/Q) used to stop reactions was 100 nM labetalol in (by volume) formic acid (1%) and acetonitrile (99%).
PBS Stability Assay: For each test compound, an aliquot of the test compound was added to phosphate buffered saline (137 mM NaCl, 2.7 mM KCl, 10 mM phosphate buffer), pH 7.4. The incubation was initiated by the addition of the test compound to PBS to a final concentration of 2 μM. At 0, 10, 20, 30, 60 and 120 min, 25 μL aliquots of the incubation mixture were transferred to plates containing 225 μl of IS/Q solution. After quenching, the plates were centrifuged at 3000×g for 30 minutes. 150 μL aliquots of each supernatant were transferred to new plates and 150 μL water was added. Aliquots (10 μL) of the prepared samples were analyzed on a Thermo Q-Exactive mass spectrometer as described below.
Liquid Chromatography-Mass Spectrometry: Quantification of test compounds and control substrate was performed by analyte/internal standard peak area ratio (PAR) values measured on a Thermo Q-Exactive mass spectrometer coupled to a Dionex UltiMate 3000 HPLC with a Leap Technologies HTC PAL autosampler. The column used for analysis was a Thermo Scientific Hypersil GOLD (1.9 μm particle size, 50×2.1 mm). Mobile phase A consisted of 0.1% (v/v) formic acid in water. Mobile phase B consisted of 0.1% (v/v) formic acid in acetonitrile. Elution of analytes was achieved by a series of linear gradients varying the proportions of A and B. The mass spectrometer was calibrated on a weekly basis and mass tolerance of 5 ppm was used.
Data Analysis. Metabolic stabilities were determined by measuring the rates of disappearance of test compound and positive control substrate. Data (% of substrate remaining) were plotted on a semi-log scale and fitted using an exponential decline model:
where • Ct% of substrate remaining at time=t • C0% of substrate remaining at time=0 • t time • T½ half-life • The Half-life (T½) is determined by the following equation:
[formula] • Assuming a first-order reaction, the slope (k) is extrapolated from the aforementioned plotted data.

For data set [4], the target named is bovine intestinal alkaline phosphatase (Bos taurus (Bovine), UniProt P19111). Nature of the data set: BiALP: conversion by bovine intestinal alkaline phosphatase. The class given is in vitro ADME. As to conditions: 2 μM substrate, 100 ng/mL iALP, Tris pH 7.8, 37° C., 60 minutes; for [Intermediate A] or [Amprenavir]: parent formed. The procedure:
Fosamprenavir and its parent compound (amprenavir) were purchased from Millipore Sigma (St. Louis, MO). Test compounds, Intermediate A, fosamprenavir, and amprenavir were each separately dissolved in dimethyl sulfoxide (DMSO) at a concentration of 10 mM to form stock solutions.
All other chemicals were purchased from Millipore Sigma (St. Louis, MO) and Thermo Fisher Scientific (Waltham, MA). […] Internal Standard/Quench (IS/Q) was 100 nM labetalol in 99:1 (v/v) acetonitrile/formic acid.
Incubations were performed with Tris buffer alone (0.1 M Tris-HCl pH 7.8 containing 1 mM MgCl2 and 1 mM ZnCl2) or the same Tris buffer further containing 100 ng/mL iALP (0.01 units/mL). Triplicate 100 μL aliquots of Tris buffer±iALP were warmed to 37° C. and the reactions were initiated by the addition of the test compound or fosamprenavir to obtain final substrate concentrations of 2 μM. Incubations were then continued at 37° C. At 60 minutes, reactions were terminated by the addition of 200 μl of IS/Q and mixed by pipette. […] Aliquots (150 μL) of the supernatants were transferred to fresh plates containing 150 μL of water. Aliquots (15 μL) of the diluted supernatants were analyzed by mass spectrometry as described below.
Quantification of the test compounds and fosamprenavir was performed by analyte/internal standard peak area ratios (PARs) with comparison to 2 μM Intermediate A and amprenavir, respectively. The LC instrumentation consisted of a Thermo Scientific Vanquish pump and a Thermo Hypersil Gold column (1.9 μm particle size, 2.1×50 mm). […] The MS instrument was a Thermo Q Exactive™ Plus operating in positive ionization mode with mass tolerance of 5 ppm and calibrated on a twice weekly basis.

The mark [5] stands for this setting: Human immunodeficiency virus 1, IIIB, MT4, 120 h.

≈ marks a conversion by molar mass, not a printed value. Like-named read-outs stand apart in the source and are kept apart here.

The term EC50 denotes the concentration giving half of the maximal effect. As a reminder, the solubility is the concentration that dissolves in the medium under given conditions.

bovine intestinal alkaline phosphatase, sequence (P19111 20-506): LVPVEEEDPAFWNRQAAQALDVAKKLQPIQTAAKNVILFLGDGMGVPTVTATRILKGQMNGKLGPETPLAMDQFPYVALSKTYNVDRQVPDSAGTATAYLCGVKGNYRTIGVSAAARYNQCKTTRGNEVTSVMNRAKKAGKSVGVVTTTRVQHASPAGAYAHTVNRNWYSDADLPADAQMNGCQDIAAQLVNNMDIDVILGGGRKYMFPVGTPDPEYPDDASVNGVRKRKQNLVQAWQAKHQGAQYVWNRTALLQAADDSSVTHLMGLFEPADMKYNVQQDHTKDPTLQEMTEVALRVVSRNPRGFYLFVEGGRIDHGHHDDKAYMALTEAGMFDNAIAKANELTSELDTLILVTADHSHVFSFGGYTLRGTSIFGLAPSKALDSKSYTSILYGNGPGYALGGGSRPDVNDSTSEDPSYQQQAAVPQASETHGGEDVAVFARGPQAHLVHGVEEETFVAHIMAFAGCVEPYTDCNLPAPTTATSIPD

For the compound `COC(=O)N[C@H](C(=O)N[C@@H](Cc1ccc(C#Cc2cnc(N3CC4CCC(C3)N4C3COC3)nc2)cc1)[C@H](CN(Cc1c(F)cc(-c2ccn(C(F)F)n2)cc1F)NC(=O)[C@@H](NC(=O)OC)C(C)(C)C(F)(F)F)OC(=O)OCOC(=O)CC(C)(C)c1c(CC(=O)O)cc(C)cc1OP(=O)(O)O)C(C)(C)C(F)(F)F` [Example 20], the EC50 in data set [1] (Human immunodeficiency virus 1, IIIB, MT4, 120 h, read-out: EC50) was determined as 0.7 nM. Moreover, the concentration in solution in data set [2] (FaSSIF (pH 6.5) solubility, FaSSIF pH 6.5, dose 5 mg/mL, 2-hour incubation, ambient temperature) (solubility) was 220 µg/mL (≈ 141 µM). Moreover, the half-life at 2 μM in data set [3] was determined as 6.5 h. Also, in data set [4], the “[Compound]” value came to 1351.2 nM, the “biALP Intermediate A or [Amprenavir] (% of total)” value is given as 48.6 % of total and the “[Intermediate A] or [Amprenavir]” value was 1276.2 nM.

On to `COC(=O)N[C@H](C(=O)N[C@@H](Cc1ccc(C#Cc2cnc(N3CC4CCC(C3)N4C3COC3)nc2)cc1)[C@H](CN(Cc1c(F)cc(-c2ccn(C(F)F)n2)cc1F)NC(=O)[C@@H](NC(=O)OC)C(C)(C)C(F)(F)F)OC(=O)OCOC(=O)CC(C)(C)c1c(CC(=O)NCCS(=O)(=O)O)cc(C)cc1OP(=O)(O)O)C(C)(C)C(F)(F)F` [Example 21], for which, in data set [1] (setting [5]), the EC50 turned out to be 3.6 nM. The compound also displayed a solubility at 2 h in data set [2] of 4340 µg/mL (≈ 2610 µM). The “PBS T½” value in data set [3] came to 13.2 h. In addition, in data set [4], the “[Compound]” value is 1281.9 nM, the “biALP Intermediate A or [Amprenavir] (% of total)” value was 44.7 % of total and the “[Intermediate A] or [Amprenavir]” value came out at 1034.6 nM.

Take `COC(=O)N[C@H](C(=O)N[C@@H](Cc1ccc(C#Cc2cnc(N3CC4CCC(C3)N4C3COC3)nc2)cc1)[C@H](CN(Cc1c(F)cc(-c2ccn(C(F)F)n2)cc1F)NC(=O)[C@@H](NC(=O)OC)C(C)(C)C(F)(F)F)OC(=O)OCOC(=O)CC(C)(C)c1c(CC(=O)NCC(=O)NS(C)(=O)=O)cc(C)cc1OP(=O)(O)O)C(C)(C)C(F)(F)F` [Example 22]: a half-maximal effect in data set [1] (setting [5]) (EC50) was put at 9.9 nM. The same compound returned a solubility at 2 h in data set [2] of 4720 µg/mL (≈ 2790 µM). The half-life at 2 μM in data set [3] is 6.22 h. In addition, in data set [4], the “[Compound]” value is reported as 1221.6 nM, the “biALP Intermediate A or [Amprenavir] (% of total)” value was 54.6 % of total and the “[Intermediate A] or [Amprenavir]” value stood at 1468.7 nM.

Consider `COC(=O)N[C@H](C(=O)N[C@@H](Cc1ccc(C#Cc2cnc(N3CC4CCC(C3)N4C3COC3)nc2)cc1)[C@H](CN(Cc1c(F)cc(-c2ccn(C(F)F)n2)cc1F)NC(=O)[C@@H](NC(=O)OC)C(C)(C)C(F)(F)F)OC(=O)CC(C)(C)c1c(CC(=O)NCCCS(=O)(=O)O)cc(C)cc1OP(=O)(O)O)C(C)(C)C(F)(F)F` [Example 25], for which the EC50 in data set [1] (setting [5]) amounted to 62.7 nM. This compound also gave a solubility at 2 h in data set [2] of 2410 µg/mL (≈ 1500 µM). For the same compound, the half-life at 2 μM in data set [3] came to 1.37 h. Also, the “[Compound]” value in data set [4] was found to be 2023.7 nM.

Compound `COC(=O)N[C@H](C(=O)N[C@@H](Cc1ccc(C#Cc2cnc(N3CC4CCC(C3)N4C3COC3)nc2)cc1)[C@H](CN(Cc1c(F)cc(-c2ccn(C(F)F)n2)cc1F)NC(=O)[C@@H](NC(=O)OC)C(C)(C)C(F)(F)F)OC(=O)CC(C)(C)c1c(CC(=O)NCCC(=O)O)cc(C)cc1OP(=O)(O)O)C(C)(C)C(F)(F)F` [Example 26] showed an EC50 in data set [1] (setting [5]) of 96.9 nM. In data set [2], this compound returned a solubility at 2 h of 1440 µg/mL (≈ 923 µM). In data set [3], the half-life at 2 μM was 2.44 h. Also, the “[Compound]” value in data set [4] is listed as 1764 nM.

For the compound `COC(=O)N[C@H](C(=O)N[C@@H](Cc1ccc(C#Cc2cnc(N3CC4CCC(C3)N4C3COC3)nc2)cc1)[C@H](CN(Cc1c(F)cc(-c2ccn(C(F)F)n2)cc1F)NC(=O)[C@@H](NC(=O)OC)C(C)(C)C(F)(F)F)OC(=O)CC(C)(C)c1c(CC(=O)NC(CP(=O)(O)O)C(=O)O)cc(C)cc1OP(=O)(O)O)C(C)(C)C(F)(F)F` (stereo partly drawn) [Example 34], in data set [1] (setting [5]), the EC50 came out at 179 nM. For the same compound, the concentration in solution in data set [2] (solubility at 2 h) was 4810 µg/mL (≈ 2940 µM). The half-life at 2 μM in data set [3] was 5.08 h. Also, the “[Compound]” value in data set [4] is recorded as 2238.2 nM.

In data set [1] (setting [5]), `COC(=O)N[C@H](C(=O)N[C@@H](Cc1ccc(C#Cc2cnc(N3CC4CCC(C3)N4C3COC3)nc2)cc1)[C@H](CN(Cc1c(F)cc(-c2ccn(C(F)F)n2)cc1F)NC(=O)[C@@H](NC(=O)OC)C(C)(C)C(F)(F)F)OC(=O)CC(C)(C)c1c(CC(=O)N(CCCC(=O)O)CCC(=O)O)cc(C)cc1OP(=O)(O)O)C(C)(C)C(F)(F)F` [Example 36] showed an EC50 of 97.4 nM. In data set [2], this compound returned a solubility at 2 h of 4260 µg/mL (≈ 2590 µM). In addition, the half-life at 2 μM in data set [3] is 10.9 h. Moreover, the “[Compound]” value in data set [4] is 1383.3 nM.

Take `COC(=O)N[C@H](C(=O)N[C@@H](Cc1ccc(C#Cc2cnc(N3CC4CCC(C3)N4C3COC3)nc2)cc1)[C@H](CN(Cc1c(F)cc(-c2ccn(C(F)F)n2)cc1F)NC(=O)[C@@H](NC(=O)OC)C(C)(C)C(F)(F)F)OC(=O)CC(C)(C)c1c(CC(=O)NC(CCCC(=O)O)CC(=O)O)cc(C)cc1OP(=O)(O)O)C(C)(C)C(F)(F)F` (stereo partly drawn) [Example 37]: the EC50 in data set [1] (setting [5]) came to 41.8 nM. Besides, in data set [2], the solubility at 2 h worked out at 4460 µg/mL (≈ 2720 µM). Besides, in data set [3], the half-life at 2 μM was determined as 7.32 h. Moreover, in data set [4], the “[Compound]” value came out at 1518.9 nM.

Compound `COC(=O)N[C@H](C(=O)N[C@@H](Cc1ccc(C#Cc2cnc(N3CC4CCC(C3)N4C3COC3)nc2)cc1)[C@H](CN(Cc1c(F)cc(-c2ccn(C(F)F)n2)cc1F)NC(=O)[C@@H](NC(=O)OC)C(C)(C)C(F)(F)F)OC(=O)CC(C)(C)c1c(CC(=O)NC(CCCC(=O)O)C(=O)O)cc(C)cc1OP(=O)(O)O)C(C)(C)C(F)(F)F` (stereo partly drawn) [Example 42] registered an EC50 in data set [1] of 49.1 nM. The solubility at 2 h in data set [2] was 4020 µg/mL (≈ 2470 µM). Moreover, the “PBS T½” value in data set [3] is 6.025 h. For the same compound, the “[Compound]” value in data set [4] came to 1335 nM.

The values are drawn from patent publication US20250051375A1, “ANTI-HIV COMPOUNDS” (Gilead Sciences, Inc., priority 2023, published 2025).
